From BindingDB's records for doi:10.1016/j.bmc.2018.09.008 (Ochanomizu University, 2018)

Assay: Antagonist activity at AR in mouse SC3 cells assessed as inhibition of DHT-induced cell proliferation after 3 days by CCK8 assay

For CN(C)c1ccc(C(=O)Nc2cccc(Oc3ccc(O)cc3)c2)cc1, the IC50 was 7.4 µM.

In the case of COc1ccccc1C(=O)Nc1ccc(C)c(Oc2ccc(O)cc2)c1, the IC50 is reported as 5.3 µM.

In the case of COc1cccc(C(=O)N(C)c2ccc(Oc3ccc(O)cc3)c(C)c2)c1, the IC50 is reported as 7.6 µM.

COc1cccc(C(=O)Nc2ccc(Oc3ccc(O)cc3)c(Br)c2)c1 showed an IC50 of 5.7 µM.

Work on COc1cccc(C(=O)Nc2ccc(Oc3ccc(O)cc3)cc2Cl)c1 yielded an IC50 of 1.7 µM.

COc1cccc(C(=O)Nc2cc(Cl)c(Oc3ccc(O)cc3)c(Cl)c2)c1 gave an IC50 of 0.48 µM.

For COc1cccc(C(=O)Nc2ccc(Oc3cccc(O)c3)cc2)c1, the IC50 was > 10 µM.

For CN(C)c1ccc(C(=O)Nc2ccc(Oc3cccc(O)c3)cc2)cc1, the IC50 was 3.2 µM.

With COc1ccccc1C(=O)Nc1cccc(Oc2ccc(O)cc2)c1 the IC50 was > 10 µM.

In the case of COc1ccc(C(=O)Nc2cccc(Oc3ccc(O)cc3)c2)cc1, the IC50 is reported as > 10 µM.

In the case of CN(C)c1ccccc1C(=O)Nc1cccc(Oc2ccc(O)cc2)c1, the IC50 is reported as 6.3 µM.

In the case of COc1ccc(C(=O)Nc2cc(Oc3ccc(O)cc3)ccc2C)cc1, the IC50 is reported as > 10 µM.

In the case of COc1ccc(C(=O)Nc2cccc(Oc3ccc(O)cc3)c2C)cc1, the IC50 is reported as > 10 µM.

With COc1ccc(C(=O)Nc2ccc(C)c(Oc3ccc(O)cc3)c2)cc1 the IC50 was > 10 µM.

In the case of COc1cccc(C(=O)Nc2cccc(Oc3cccc(O)c3)c2)c1, the IC50 is reported as > 10 µM.

With COc1ccc(C(=O)Nc2cccc(Oc3cccc(O)c3)c2)cc1 the IC50 was > 10 µM.

With CN(C)c1cccc(C(=O)Nc2cccc(Oc3cccc(O)c3)c2)c1 the IC50 was > 10 µM.

With COc1cccc(C(=O)Nc2ccc(Oc3ccc(O)cc3)c(F)c2)c1 the IC50 was 0.4 µM.

In the case of COc1cccc(C(=O)Nc2ccc(Oc3ccc(O)cc3)c(Cl)c2)c1, the IC50 is reported as 0.48 µM.

Work on COc1cccc(C(=O)Nc2ccc(Oc3ccc(O)cc3)c(C(F)(F)F)c2)c1 yielded an IC50 of 4.3 µM.

Work on COc1cccc(C(=O)Nc2ccc(Oc3ccc(O)cc3)cc2C)c1 yielded an IC50 of 3 µM.

With COc1cccc(C(=O)Nc2ccc(Oc3ccc(O)cc3)cc2F)c1 the IC50 was 0.65 µM.

With COc1cccc(C(=O)Nc2ccc(Oc3ccc(O)cc3)cc2OC)c1 the IC50 was 3.4 µM.

Compound COc1cccc(C(=O)Nc2cc(F)c(Oc3ccc(O)cc3)c(F)c2)c1 has an IC50 of 0.51 µM.

In the case of COc1cccc(C(=O)Nc2ccc(Oc3ccc(O)cc3)c(F)c2F)c1, the IC50 is reported as 0.53 µM.
